Measurements published in ChEMBL document CHEMBL4334534, “Novel Methyl-aza-quinazolines as Inhibitors of the RAS-SOS Interaction” (ACS Med Chem Lett, 2020).

Tests used:
[1] = target: Epidermal growth factor receptor (Homo sapiens, UniProt P00533); assay: Inhibition of EGFR phosphorylation at Y 1173 residues in human HeLa cells preincubated for 30 mins followed by EGF-stimulation and measured after 2 mins by ELISA; format: cell-based
SOS1-KRAS [2] = target: T1, SOS1-KRAS (Homo sapiens, UniProt P01116+Q07889, G12C); assay: Inhibition of human N-terminal GST-tagged K-RasG12C mutant/human N-terminal His-tagged SOS1 preincubated for 2 mis followed by SOS1 addition and measured after 20 mins in presence of GDP-Dy647P1 by HTRF assay
SOS1-KRAS [3] = target: T1, SOS1-KRAS; assay: Inhibition of human N-terminal GST-tagged K-RasG12C mutant/human N-terminal His-tagged SOS1 preincubated for 2 mis followed by SOS1 addition and measured after 60 mins by HTRF assay
SOS1-KRAS [4] = target: T1, SOS1-KRAS; assay: Inhibition of human N-terminal GST-tagged K-RasG12C mutant/human N-terminal His-tagged SOS1 preincubated for 2 mis followed by SOS1 addition and measured after 10 mins in presence of EDA-GTP-Dy647P1 by HTRF assay

T1 sequence (P01116 whole entry G12C, stated change not applied): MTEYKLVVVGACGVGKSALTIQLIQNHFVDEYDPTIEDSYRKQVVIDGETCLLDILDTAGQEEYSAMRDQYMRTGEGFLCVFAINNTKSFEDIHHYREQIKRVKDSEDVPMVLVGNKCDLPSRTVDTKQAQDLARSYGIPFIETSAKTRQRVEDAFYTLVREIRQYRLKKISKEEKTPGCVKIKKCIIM
T1 sequence (Q07889 whole entry, stated change not applied): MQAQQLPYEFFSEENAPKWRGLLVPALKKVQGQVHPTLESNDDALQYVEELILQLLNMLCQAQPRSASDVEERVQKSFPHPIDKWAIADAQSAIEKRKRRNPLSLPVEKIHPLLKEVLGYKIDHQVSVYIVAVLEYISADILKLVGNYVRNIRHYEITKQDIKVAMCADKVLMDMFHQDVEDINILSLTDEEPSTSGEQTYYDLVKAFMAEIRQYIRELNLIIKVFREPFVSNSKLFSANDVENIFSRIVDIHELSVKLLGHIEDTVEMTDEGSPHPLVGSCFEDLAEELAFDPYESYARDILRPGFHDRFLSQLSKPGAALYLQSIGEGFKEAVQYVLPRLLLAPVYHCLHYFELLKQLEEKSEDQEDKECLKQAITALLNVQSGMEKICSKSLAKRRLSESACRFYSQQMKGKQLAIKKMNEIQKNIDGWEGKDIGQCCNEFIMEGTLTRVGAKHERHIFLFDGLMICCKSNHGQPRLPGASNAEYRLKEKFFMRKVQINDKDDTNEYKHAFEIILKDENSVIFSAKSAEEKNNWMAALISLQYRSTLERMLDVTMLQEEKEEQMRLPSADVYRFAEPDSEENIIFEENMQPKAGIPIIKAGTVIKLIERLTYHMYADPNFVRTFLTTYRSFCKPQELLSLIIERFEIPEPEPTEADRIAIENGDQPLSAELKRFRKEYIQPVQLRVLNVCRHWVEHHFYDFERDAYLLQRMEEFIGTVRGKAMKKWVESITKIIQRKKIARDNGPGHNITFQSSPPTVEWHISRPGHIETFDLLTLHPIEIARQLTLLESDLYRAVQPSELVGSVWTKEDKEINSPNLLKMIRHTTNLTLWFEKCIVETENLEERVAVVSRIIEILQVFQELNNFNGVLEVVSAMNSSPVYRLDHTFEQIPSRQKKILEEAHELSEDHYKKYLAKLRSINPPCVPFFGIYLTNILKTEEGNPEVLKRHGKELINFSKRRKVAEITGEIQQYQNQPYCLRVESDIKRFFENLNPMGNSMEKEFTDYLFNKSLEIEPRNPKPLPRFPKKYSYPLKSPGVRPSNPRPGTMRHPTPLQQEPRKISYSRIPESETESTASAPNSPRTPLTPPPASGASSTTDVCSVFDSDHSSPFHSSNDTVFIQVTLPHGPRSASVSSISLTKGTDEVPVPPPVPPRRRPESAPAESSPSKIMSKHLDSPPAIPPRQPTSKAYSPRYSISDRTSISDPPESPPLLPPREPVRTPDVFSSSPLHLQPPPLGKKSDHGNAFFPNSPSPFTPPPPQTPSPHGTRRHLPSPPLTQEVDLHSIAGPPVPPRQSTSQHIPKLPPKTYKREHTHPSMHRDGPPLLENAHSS
Sequence of Epidermal growth factor receptor (P00533 whole entry): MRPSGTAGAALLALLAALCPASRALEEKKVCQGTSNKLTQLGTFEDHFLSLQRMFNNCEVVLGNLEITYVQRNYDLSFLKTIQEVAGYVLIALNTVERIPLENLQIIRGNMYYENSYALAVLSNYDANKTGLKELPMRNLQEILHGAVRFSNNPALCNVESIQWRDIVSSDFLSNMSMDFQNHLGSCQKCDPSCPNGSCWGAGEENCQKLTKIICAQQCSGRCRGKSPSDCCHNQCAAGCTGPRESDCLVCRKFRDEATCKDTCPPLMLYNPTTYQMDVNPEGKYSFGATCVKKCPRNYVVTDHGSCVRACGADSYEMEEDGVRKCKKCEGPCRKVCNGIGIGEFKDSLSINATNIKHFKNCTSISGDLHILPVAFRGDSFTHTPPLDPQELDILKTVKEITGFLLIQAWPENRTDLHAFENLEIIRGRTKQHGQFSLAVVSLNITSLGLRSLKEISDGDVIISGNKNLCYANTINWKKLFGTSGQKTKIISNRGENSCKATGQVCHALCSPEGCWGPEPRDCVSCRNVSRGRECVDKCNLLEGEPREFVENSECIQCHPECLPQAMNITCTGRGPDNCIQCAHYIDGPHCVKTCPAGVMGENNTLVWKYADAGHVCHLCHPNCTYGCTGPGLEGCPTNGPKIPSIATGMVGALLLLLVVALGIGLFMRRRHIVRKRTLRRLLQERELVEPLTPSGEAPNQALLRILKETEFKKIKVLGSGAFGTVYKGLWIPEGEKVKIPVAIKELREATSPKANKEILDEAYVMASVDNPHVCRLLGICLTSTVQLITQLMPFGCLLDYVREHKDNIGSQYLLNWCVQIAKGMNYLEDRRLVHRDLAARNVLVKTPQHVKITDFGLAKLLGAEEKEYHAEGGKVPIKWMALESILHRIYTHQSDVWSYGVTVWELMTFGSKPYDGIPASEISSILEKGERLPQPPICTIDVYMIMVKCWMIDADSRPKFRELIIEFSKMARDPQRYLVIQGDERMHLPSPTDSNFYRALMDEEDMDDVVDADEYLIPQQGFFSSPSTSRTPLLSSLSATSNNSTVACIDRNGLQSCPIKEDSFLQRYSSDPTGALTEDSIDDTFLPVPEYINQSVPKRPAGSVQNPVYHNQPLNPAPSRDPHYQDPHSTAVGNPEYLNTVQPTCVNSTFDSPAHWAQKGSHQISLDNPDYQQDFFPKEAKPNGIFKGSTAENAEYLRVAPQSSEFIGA

Row | Compound | IC50 [1] | further results
1 | CC(=O)N[C@@H]1CCN(c2cc3c(NC(C)c4ccc(-c5ccccc5CN(C)C)s4)nc(C)nc3cn2)C1 (stereo in doubt; 79) | – | IC50 ([1]; hela): > 20 µM
2 | CCOc1cc2c(N[C@H](C)c3ccccc3)nc(C)nc2cn1 | > 20 µM | –
3 | CCCOc1cc2c(NC(C)c3ccc(-c4ccccc4CN(C)C)s3)nc(C)nc2cn1 (centres undefined) | > 20 µM | IC50 (SOS1-KRAS [2]): 0.038 µM
4 | CSc1cc2c(N[C@H](C)c3ccc(F)cc3)nc(C)nc2cn1 | > 20 µM | –
5 | Cc1nc(NC(C)c2ccc(-c3ccccc3CN(C)C)s2)c2cc(OCCN(C)C)ncc2n1 (centres undefined) | > 20 µM | IC50 (SOS1-KRAS [2]): 0.027 µM; IC50 (SOS1-KRAS [3]): 0.03 µM
6 | CC(=O)N[C@H]1CCN(c2cc3c(NC(C)c4ccc(-c5ccccc5CN(C)C)s4)nc(C)nc3cn2)C1 (stereo in doubt; 81) | – | IC50 ([1]; hela): > 20 µM
7 | CNCc1ccccc1-c1ccc(C(C)Nc2nc(C)nc3cnc(OCC4CCNC(=O)C4)cc23)s1 (centres undefined) | > 20 µM | –
8 | Cc1nc(NC(C)c2ccc(-c3ccccc3CN(C)C)s2)c2cc(N3CC(NC(=O)CN4CCOCC4)C3)ncc2n1 (centres undefined) | > 20 µM | –
9 | CC(=O)N[C@H]1CCN(c2cc3c(NC(C)c4ccc(-c5ccccc5CN(C)C)s4)nc(C)nc3cn2)C1 (stereo in doubt; 61) | > 20 µM | –
10 | COc1cc2c(N[C@H](C)c3ccc(F)cc3)nc(C)nc2cn1 | > 20 µM | –
11 | CC(=O)N[C@@H]1CCN(c2cc3c(NC(C)c4ccc(-c5ccccc5CN(C)C)s4)nc(C)nc3cn2)C1 (stereo in doubt; 80) | – | IC50 ([1]; hela): > 20 µM
12 | CC(=O)N[C@@H]1CCN(c2cc3c(NC(C)c4ccc(-c5ccccc5CN(C)C)s4)nc(C)nc3cn2)C1 (stereo in doubt; 60) | > 20 µM | –
13 | Cc1nc(NC(C)c2ccc(-c3ccccc3CN(C)C)s2)c2cc(N3CCN(Cc4cccnc4)CC3)ncc2n1 (centres undefined) | > 20 µM | IC50 (SOS1-KRAS [2]): 0.085 µM
14 | Cc1nc(NC(C)c2ccc(-c3ccccc3CN(C)C)s2)c2cc(N3CCNC(=O)C3)ncc2n1 (centres undefined) | > 20 µM | IC50 (SOS1-KRAS [2]): 0.048 µM; IC50 (SOS1-KRAS [4]): 0.054 µM
15 | CCOc1cc2c(N[C@H](C)c3ccc(F)cc3)nc(C)nc2cn1 | > 20 µM | –
16 | COCCOc1cc2c(N[C@H](C)c3ccc(F)cc3)nc(C)nc2cn1 | > 20 µM | –
17 | CC(=O)N[C@H]1CCN(c2cc3c(NC(C)c4ccc(-c5ccccc5CN(C)C)s4)nc(C)nc3cn2)C1 (stereo in doubt; 82) | – | IC50 ([1]; hela): > 20 µM
18 | CC(=O)NC1CCN(c2cc3c(NC(C)c4ccc(-c5ccccc5CN(C)C)s4)nc(C)nc3cn2)C1 (racemic) | > 20 µM | –
